In patent publication US20250171438A1 (Agios Pharmaceuticals, Inc., priority 2022, published 2025):

target: T1, human PAH with the R408W mutation (Homo sapiens, UniProt P00439, R408W); experiment: Cell Based Phenylalanine Flux Assay; details: A375 cells expressing human R408W PAH; 24 hrs compound incubation; 13C-Tyrosine by LC-MS; average where tested multiple times; read-out: AC50
T1 construct: expressed in transfected cells
T1 sequence (P00439 1-452 R408W): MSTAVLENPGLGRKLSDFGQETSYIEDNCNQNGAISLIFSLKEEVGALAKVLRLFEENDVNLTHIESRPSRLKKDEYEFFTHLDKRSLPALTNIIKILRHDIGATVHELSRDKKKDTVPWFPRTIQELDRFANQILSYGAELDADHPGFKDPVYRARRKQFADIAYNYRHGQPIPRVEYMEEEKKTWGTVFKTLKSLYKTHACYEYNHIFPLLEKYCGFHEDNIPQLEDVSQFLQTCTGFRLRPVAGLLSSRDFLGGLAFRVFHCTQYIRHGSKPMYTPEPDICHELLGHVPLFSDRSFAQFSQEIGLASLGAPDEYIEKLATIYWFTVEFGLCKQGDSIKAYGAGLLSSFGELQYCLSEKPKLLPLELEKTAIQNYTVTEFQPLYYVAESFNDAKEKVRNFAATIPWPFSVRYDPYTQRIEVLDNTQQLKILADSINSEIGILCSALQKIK

SMILES	AC50
CC(F)c1nc(C(F)F)c(C(=O)N2CCc3[nH]cnc3[C@@H]2c2nc3c(F)cccc3s2)o1 (stereo partly drawn) [Example 2076, (4-(difluoromethyl)-2-(1-fluoroethyl)oxazol-5-yl)((R)-4-(4-fluorobenzo[d]thiazol-2-yl)-6,7-dihydro-1H-imidazo[4,5-c]pyridin-5(4H)-yl)methanone]	500 to 1000 nM
CCn1cnnc1C(=O)N1CCc2[nH]cnc2[C@@H]1c1nc2ccccc2s1 [Example 2077, (R)-(4-(benzo[d]thiazol-2-yl)-6,7-dihydro-1H-imidazo[4,5-c]pyridin-5(4H)-yl)(4-ethyl-4H-1,2,4-triazol-3-yl)methanone]	> 5000 nM
CC(C)(O)c1nc(C(F)F)c(C(=O)N2CCc3[nH]cnc3[C@H]2c2nc3c(F)cccc3s2)s1 [Example 2085, (S)-(4-(difluoromethyl)-2-(2-hydroxypropan-2-yl)thiazol-5-yl)(4-(4-fluorobenzo[d]thiazol-2-yl)-6,7-dihydro-1H-imidazo[4,5-c]pyridin-5(4H)-yl)methanone]	< 500 nM
CC(C)(O)c1nc(Cl)c(C(=O)N2CCc3[nH]cnc3[C@@H]2c2nc3c(F)cccc3s2)s1 [Example 2088, (R)-(4-chloro-2-(2-hydroxypropan-2-yl)thiazol-5-yl)(4-(4-fluorobenzo[d]thiazol-2-yl)-6,7-dihydro-1H-imidazo[4,5-c]pyridin-5(4H)-yl)methanone]	1000 to 5000 nM
CC(C)(O)c1nc(Br)c(C(=O)N2CCc3[nH]cnc3[C@H]2c2nc3ccccc3s2)o1 [Example 2089]	< 500 nM
CC(C)(O)c1nc(Br)c(C(=O)N2CCc3[nH]cnc3[C@@H]2c2nc3ccccc3s2)o1 [Example 2090, (R)-(4-(benzo[d]thiazol-2-yl)-6,7-dihydro-1H-imidazo[4,5-c]pyridin-5(4H)-yl)(4-bromo-2-(2-hydroxypropan-2-yl)oxazol-5-yl)methanone]	1000 to 5000 nM
C[C@@H](O)c1nc(C(F)F)c(C(=O)N2CCc3[nH]cnc3[C@H]2c2nc3ccccc3s2)o1 [Example 2091]	< 500 nM
C[C@@H](O)c1nc(C(F)F)c(C(=O)N2CCc3[nH]cnc3[C@@H]2c2nc3ccccc3s2)o1 [Example 2092, ((R)-4-(benzo[d]thiazol-2-yl)-6,7-dihydro-1H-imidazo[4,5-c]pyridin-5(4H)-yl)(4-(difluoromethyl)-2-((R)-1-hydroxyethyl)oxazol-5-yl)methanone]	500 to 1000 nM
C[C@H](O)c1nc(C(F)F)c(C(=O)N2CCc3[nH]cnc3[C@@H]2c2nc3ccccc3s2)o1 [Example 2096, ((R)-4-(benzo[d]thiazol-2-yl)-6,7-dihydro-1H-imidazo[4,5-c]pyridin-5(4H)-yl)(4-(difluoromethyl)-2-((S)-1-hydroxyethyl)oxazol-5-yl)methanone]	1000 to 5000 nM
O=C(c1ccnn1C(F)(F)F)N1CCc2[nH]cnc2[C@H]1c1nc2ccccc2s1 [Example 2097]	< 500 nM
O=C(c1ccnn1C(F)(F)F)N1CCc2[nH]cnc2[C@H]1c1nc2c(F)cccc2s1 [Example 2099, (S)-(4-(4-fluorobenzo[d]thiazol-2-yl)-6,7-dihydro-1H-imidazo[4,5-c]pyridin-5(4H)-yl)(1-(trifluoromethyl)-1H-pyrazol-5-yl)methanone]	< 500 nM
O=C(c1ccnn1C(F)(F)F)N1CCc2[nH]cnc2[C@@H]1c1nc2c(F)cccc2s1 [Example 2100, (R)-(4-(4-fluorobenzo[d]thiazol-2-yl)-6,7-dihydro-1H-imidazo[4,5-c]pyridin-5(4H)-yl)(1-(trifluoromethyl)-1H-pyrazol-5-yl)methanone]	1000 to 5000 nM
Cn1ncnc1C(=O)N1CCc2[nH]cnc2[C@H]1c1nc2c(C(F)(F)F)cccc2s1 [Example 2101, (S)-(1-methyl-1H-1,2,4-triazol-5-yl)(4-(4-(trifluoromethyl)benzo[d]thiazol-2-yl)-6,7-dihydro-1H-imidazo[4,5-c]pyridin-5(4H)-yl)methanone]	500 to 1000 nM
Cn1ncnc1C(=O)N1CCc2[nH]cnc2[C@@H]1c1nc2c(C(F)(F)F)cccc2s1 [Example 2102, (R)-(1-methyl-1H-1,2,4-triazol-5-yl)(4-(4-(trifluoromethyl)benzo[d]thiazol-2-yl)-6,7-dihydro-1H-imidazo[4,5-c]pyridin-5(4H)-yl)methanone]	1000 to 5000 nM

The remaining lines, values ahead:

AC50	SMILES
500 to 1000 nM	CC[C@@H](O)c1nc(C(F)F)c(C(=O)N2CCc3[nH]cnc3[C@@H]2c2nc3c(F)cccc3s2)o1 [Example 2068, (4-(difluoromethyl)-2-((R)-1-hydroxypropyl)oxazol-5-yl)((R)-4-(4-fluorobenzo[d]thiazol-2-yl)-6,7-dihydro-1H-imidazo[4,5-c]pyridin-5(4H)-yl)methanone]
< 500 nM	CNC(C)(C)c1nc(C(F)F)c(C(=O)N2CCc3[nH]cnc3[C@H]2c2nc3c(F)cccc3s2)o1 [Example 2069, (S)-(4-(difluoromethyl)-2-(2-(methylamino)propan-2-yl)oxazol-5-yl)(4-(4-fluorobenzo[d]thiazol-2-yl)-6,7-dihydro-1H-imidazo[4,5-c]pyridin-5(4H)-yl)methanone]
< 500 nM	CNC(C)(C)c1nc(C(F)F)c(C(=O)N2CCc3[nH]cnc3[C@@H]2c2nc3c(F)cccc3s2)o1 [Example 2070, (R)-(4-(difluoromethyl)-2-(2-(methylamino)propan-2-yl)oxazol-5-yl)(4-(4-fluorobenzo[d]thiazol-2-yl)-6,7-dihydro-1H-imidazo[4,5-c]pyridin-5(4H)-yl)methanone]
< 500 nM	CC(C)(CO)c1nc(C(F)F)c(C(=O)N2CCc3[nH]cnc3[C@H]2c2nc3c(F)cccc3s2)o1 [Example 2071]
500 to 1000 nM	CC(C)(CO)c1nc(C(F)F)c(C(=O)N2CCc3[nH]cnc3[C@@H]2c2nc3c(F)cccc3s2)o1 [Example 2072, (R)-(4-(difluoromethyl)-2-(1-hydroxy-2-methylpropan-2-yl)oxazol-5-yl)(4-(4-fluorobenzo[d]thiazol-2-yl)-6,7-dihydro-1H-imidazo[4,5-c]pyridin-5(4H)-yl)methanone]
< 500 nM	CCn1cnnc1C(=O)N1CCc2[nH]cnc2[C@H]1c1nc2ccccc2s1 [Example 2078]
1000 to 5000 nM	O=C(c1nncn1C1CC1)N1CCc2[nH]cnc2[C@@H]1c1nc2c(F)cccc2s1 [Example 2083, (R)-(4-cyclopropyl-4H-1,2,4-triazol-3-yl)(4-(4-fluorobenzo[d]thiazol-2-yl)-6,7-dihydro-1H-imidazo[4,5-c]pyridin-5(4H)-yl)methanone]
500 to 1000 nM	O=C(c1nncn1C1CC1)N1CCc2[nH]cnc2[C@H]1c1nc2c(F)cccc2s1 [Example 2084]
500 to 1000 nM	CC(C)(O)c1nc(C(F)F)c(C(=O)N2CCc3[nH]cnc3[C@@H]2c2nc3c(F)cccc3s2)s1 [Example 2086, (R)-(4-(difluoromethyl)-2-(2-hydroxypropan-2-yl)thiazol-5-yl)(4-(4-fluorobenzo[d]thiazol-2-yl)-6,7-dihydro-1H-imidazo[4,5-c]pyridin-5(4H)-yl)methanone]
1000 to 5000 nM	CC(C)(O)c1nc(Cl)c(C(=O)N2CCc3[nH]cnc3[C@H]2c2nc3c(F)cccc3s2)s1 [Example 2087, (S)-(4-chloro-2-(2-hydroxypropan-2-yl)thiazol-5-yl)(4-(4-fluorobenzo[d]thiazol-2-yl)-6,7-dihydro-1H-imidazo[4,5-c]pyridin-5(4H)-yl)methanone]
< 500 nM	CC(C)(O)c1nc(Br)c(C(=O)N2CCc3[nH]cnc3[C@H]2c2nc3c(F)cccc3s2)s1 [Example 2093, (S)-(4-bromo-2-(2-hydroxypropan-2-yl)thiazol-5-yl)(4-(4-fluorobenzo[d]thiazol-2-yl)-6,7-dihydro-1H-imidazo[4,5-c]pyridin-5(4H)-yl)methanone]
1000 to 5000 nM	CC(C)(O)c1nc(Br)c(C(=O)N2CCc3[nH]cnc3[C@@H]2c2nc3c(F)cccc3s2)s1 [Example 2094, (R)-(4-bromo-2-(2-hydroxypropan-2-yl)thiazol-5-yl)(4-(4-fluorobenzo[d]thiazol-2-yl)-6,7-dihydro-1H-imidazo[4,5-c]pyridin-5(4H)-yl)methanone]
< 500 nM	C[C@H](O)c1nc(C(F)F)c(C(=O)N2CCc3[nH]cnc3[C@H]2c2nc3ccccc3s2)o1 [Example 2095]
500 to 1000 nM	O=C(c1ccnn1C(F)(F)F)N1CCc2[nH]cnc2[C@@H]1c1nc2ccccc2s1 [Example 2098, (R)-(4-(benzo[d]thiazol-2-yl)-6,7-dihydro-1H-imidazo[4,5-c]pyridin-5(4H)-yl)(1-(trifluoromethyl)-1H-pyrazol-5-yl)methanone]
< 500 nM	CC(C)(O)c1nc(C(F)F)c(C(=O)N2CCc3[nH]cnc3[C@H]2c2nc3c(C(F)(F)F)cccc3s2)o1 [Example 2103, (S)-(4-(difluoromethyl)-2-(2-hydroxypropan-2-yl)oxazol-5-yl)(4-(4-(trifluoromethyl)benzo[d]thiazol-2-yl)-6,7-dihydro-1H-imidazo[4,5-c]pyridin-5(4H)-yl)methanone]
500 to 1000 nM	CC(C)(O)c1nc(C(F)F)c(C(=O)N2CCc3[nH]cnc3[C@@H]2c2nc3c(C(F)(F)F)cccc3s2)o1 [Example 2104, (R)-(4-(difluoromethyl)-2-(2-hydroxypropan-2-yl)oxazol-5-yl)(4-(4-(trifluoromethyl)benzo[d]thiazol-2-yl)-6,7-dihydro-1H-imidazo[4,5-c]pyridin-5(4H)-yl)methanone]
< 500 nM	CC(C)(O)c1nc(C(F)F)c(C(=O)N2CCc3[nH]cnc3[C@H]2c2nc3ccccc3s2)s1 [Example 2105]
